Assay results taken from ChEMBL document CHEMBL1201862, “PubChem BioAssay data set” (2004).
Active and inactive are the calls of the source.

Assays:
cells [1] = type: functional, cell-based
cells [2] = type: functional, cell-based; remark: listed apart in the source
Protein skinhead-1 = molecular target: T1, Protein skinhead-1 (Caenorhabditis elegans, UniProt P34707); type: functional
T1 sequence (P34707 whole entry): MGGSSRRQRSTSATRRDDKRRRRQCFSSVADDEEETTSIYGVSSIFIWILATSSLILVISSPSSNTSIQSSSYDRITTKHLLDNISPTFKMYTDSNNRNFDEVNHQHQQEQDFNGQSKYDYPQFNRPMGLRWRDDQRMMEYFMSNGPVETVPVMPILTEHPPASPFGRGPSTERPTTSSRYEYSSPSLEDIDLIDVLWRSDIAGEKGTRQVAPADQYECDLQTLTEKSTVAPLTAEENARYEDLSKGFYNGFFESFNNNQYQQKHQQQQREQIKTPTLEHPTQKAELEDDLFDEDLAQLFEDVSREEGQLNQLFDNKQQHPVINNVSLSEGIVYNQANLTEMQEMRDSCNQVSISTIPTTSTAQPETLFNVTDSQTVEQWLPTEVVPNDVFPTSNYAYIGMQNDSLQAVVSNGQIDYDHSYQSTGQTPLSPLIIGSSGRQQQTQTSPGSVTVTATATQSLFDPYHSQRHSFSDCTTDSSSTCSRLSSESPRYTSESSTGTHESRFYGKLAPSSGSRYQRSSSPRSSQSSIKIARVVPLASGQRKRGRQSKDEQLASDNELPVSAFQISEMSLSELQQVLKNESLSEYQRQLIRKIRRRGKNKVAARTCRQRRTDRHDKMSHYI

[3] = inhibitors of intracellular T. cruzi replication, confirmation, NIH3T3 host cells, beta-gal luminescence (AID 2044); type: functional, cell-based;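 note: intracellular parasites grown in NIH/3T3 mouse fibroblasts as host cells; luminescent beta-galactosidase reporter signal from transgenic T. cruzi replicating inside host cells; inhibitors lower the luminescence signal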
Beta-galactosidase = Beta-galactosidase (Escherichia coli, UniProt Q8VNN2); assay: beta-galactosidase enzyme inhibitors and activators, dose response, artefact control for CCR6 antagonist project, biochemical, E. coli enzyme, set 3 (AID 504712); type: functional
Sequence of Beta-galactosidase (Q8VNN2 whole entry): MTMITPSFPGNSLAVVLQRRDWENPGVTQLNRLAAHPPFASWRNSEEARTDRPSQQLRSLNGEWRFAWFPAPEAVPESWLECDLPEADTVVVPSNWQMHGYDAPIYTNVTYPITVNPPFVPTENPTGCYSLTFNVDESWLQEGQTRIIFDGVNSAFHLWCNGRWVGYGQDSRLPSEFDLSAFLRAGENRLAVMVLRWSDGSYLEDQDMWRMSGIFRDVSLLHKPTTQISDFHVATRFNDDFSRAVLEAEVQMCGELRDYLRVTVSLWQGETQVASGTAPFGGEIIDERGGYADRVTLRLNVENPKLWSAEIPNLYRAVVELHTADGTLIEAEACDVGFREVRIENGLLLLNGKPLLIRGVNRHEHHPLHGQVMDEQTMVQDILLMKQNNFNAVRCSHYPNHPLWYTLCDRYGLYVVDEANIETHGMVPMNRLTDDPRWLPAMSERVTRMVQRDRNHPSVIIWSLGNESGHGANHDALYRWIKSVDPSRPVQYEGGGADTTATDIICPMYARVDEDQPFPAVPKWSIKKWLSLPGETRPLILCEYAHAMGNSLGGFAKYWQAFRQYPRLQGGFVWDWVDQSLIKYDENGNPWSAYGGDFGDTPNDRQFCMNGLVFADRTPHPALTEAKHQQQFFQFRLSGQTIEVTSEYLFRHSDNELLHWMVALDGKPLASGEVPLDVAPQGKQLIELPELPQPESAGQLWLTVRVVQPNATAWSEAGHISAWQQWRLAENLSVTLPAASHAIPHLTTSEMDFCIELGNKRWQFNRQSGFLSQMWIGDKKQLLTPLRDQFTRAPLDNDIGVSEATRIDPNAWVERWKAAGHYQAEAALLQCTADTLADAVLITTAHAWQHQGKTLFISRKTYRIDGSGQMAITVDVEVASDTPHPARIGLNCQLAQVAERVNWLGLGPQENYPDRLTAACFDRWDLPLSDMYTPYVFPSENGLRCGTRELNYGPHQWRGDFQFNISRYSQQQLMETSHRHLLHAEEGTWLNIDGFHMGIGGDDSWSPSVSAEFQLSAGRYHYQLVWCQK

[4] = cytotoxicity toward NIH3T3 fibroblasts, dose response, counter-screen, cell-based, ATP luminescence, mouse fibroblasts (AID 2010); type: functional;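 note: cells exposed to compound for about 90 hours before reading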
[5] = growth suppression of PTEN-null colon cells, dose response, cell-based, HCT116 PTEN knockout (AID 1047); type: functional;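 note: HCT116 colon tumor cells with PTEN knocked out; cells exposed to compound for 60 hours before readout; potency for loss of cell viability measured by luminescence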
[6] = molecular target: T2, Microphthalmia-associated transcription factor (Homo sapiens, UniProt O75030); assay: TRPM1 promoter luciferase signal decrease, dose response, MITF inhibitor project, cell-based, SK-MEL-5, cherry-picked, set 3 (AID 493073); type: functional
T2 sequence (O75030 whole entry): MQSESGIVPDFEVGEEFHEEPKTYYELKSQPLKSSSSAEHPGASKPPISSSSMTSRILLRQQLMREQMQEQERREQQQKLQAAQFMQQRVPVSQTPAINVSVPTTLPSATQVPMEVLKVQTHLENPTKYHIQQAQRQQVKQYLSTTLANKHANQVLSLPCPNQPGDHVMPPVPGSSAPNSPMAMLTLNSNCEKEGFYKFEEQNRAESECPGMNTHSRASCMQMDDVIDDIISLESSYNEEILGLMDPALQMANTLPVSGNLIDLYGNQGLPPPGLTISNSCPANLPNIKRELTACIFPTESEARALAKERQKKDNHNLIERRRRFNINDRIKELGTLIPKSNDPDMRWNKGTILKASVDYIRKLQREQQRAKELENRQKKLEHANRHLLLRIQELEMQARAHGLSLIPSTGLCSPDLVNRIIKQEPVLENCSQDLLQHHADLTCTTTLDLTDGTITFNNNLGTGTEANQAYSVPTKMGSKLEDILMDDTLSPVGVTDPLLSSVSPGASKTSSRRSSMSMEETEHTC

[7] = molecular target: G-protein coupled receptor 55 (Homo sapiens, UniProt Q9Y2T6); assay: GPR55 antagonists blocking LPI-driven arrestin recruitment, primary screen, imaging, U2OS, beta-arrestin-GFP, LPI agonist (AID 2013); type: functional;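 note: antagonist potency measured as reduced agonist-driven arrestin aggregation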
Sequence of G-protein coupled receptor 55 (Q9Y2T6 whole entry): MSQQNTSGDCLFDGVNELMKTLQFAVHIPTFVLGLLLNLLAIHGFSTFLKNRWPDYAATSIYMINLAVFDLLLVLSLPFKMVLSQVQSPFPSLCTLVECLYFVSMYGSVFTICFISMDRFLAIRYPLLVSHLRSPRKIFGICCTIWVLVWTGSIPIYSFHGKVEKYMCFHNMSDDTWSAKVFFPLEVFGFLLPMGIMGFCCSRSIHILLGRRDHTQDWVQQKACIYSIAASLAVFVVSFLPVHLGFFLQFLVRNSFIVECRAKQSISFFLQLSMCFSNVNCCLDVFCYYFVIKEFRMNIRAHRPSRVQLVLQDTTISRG

Phospholipase A2 = Phospholipase A2 (Homo sapiens, UniProt P04054); type: functional;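 note: confirmatory dose-response counterscreen on phospholipase A2, testing hits that came from an ultra-high-throughput screen for ATG4B inhibitors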
Sequence of Phospholipase A2 (P04054 whole entry): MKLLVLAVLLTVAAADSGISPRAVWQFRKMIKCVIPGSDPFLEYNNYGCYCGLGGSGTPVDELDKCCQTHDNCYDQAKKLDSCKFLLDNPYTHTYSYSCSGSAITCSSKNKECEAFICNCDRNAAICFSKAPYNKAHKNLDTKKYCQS

Cysteine protease ATG4B = molecular target: T3, Cysteine protease ATG4B (Homo sapiens, UniProt Q9Y4P1); type: functional;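 note: Fluorescence-based dose-response confirmation assay measuring inhibition of ATG4B activity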
T3 sequence (Q9Y4P1 whole entry): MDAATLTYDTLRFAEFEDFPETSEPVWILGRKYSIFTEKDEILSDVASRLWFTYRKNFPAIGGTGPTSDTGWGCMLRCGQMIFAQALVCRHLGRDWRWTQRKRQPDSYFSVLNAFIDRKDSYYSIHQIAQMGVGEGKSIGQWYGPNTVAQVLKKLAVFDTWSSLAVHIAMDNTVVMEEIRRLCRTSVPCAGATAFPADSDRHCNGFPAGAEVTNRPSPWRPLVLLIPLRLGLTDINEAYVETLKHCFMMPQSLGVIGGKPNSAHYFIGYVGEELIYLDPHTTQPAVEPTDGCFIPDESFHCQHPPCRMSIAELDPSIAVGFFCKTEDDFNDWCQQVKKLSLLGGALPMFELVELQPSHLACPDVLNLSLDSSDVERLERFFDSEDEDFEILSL

[8] = growth suppression of beta-catenin-knockout colon cells, dose response, cell-based, HCT116, human colon tumor (AID 1045); type: functional;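 note: HCT116 colon tumor cells with beta catenin knocked out; cells exposed to compound for 60 hours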
Coagulation factor XII = molecular target: T4, Coagulation factor XII (Homo sapiens, UniProt P00748); type: functional;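 note: activated factor XIIa alpha cleaving a fluorogenic AMC peptide substrate; inhibitor potency from loss of enzyme activity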
T4 sequence (P00748 whole entry): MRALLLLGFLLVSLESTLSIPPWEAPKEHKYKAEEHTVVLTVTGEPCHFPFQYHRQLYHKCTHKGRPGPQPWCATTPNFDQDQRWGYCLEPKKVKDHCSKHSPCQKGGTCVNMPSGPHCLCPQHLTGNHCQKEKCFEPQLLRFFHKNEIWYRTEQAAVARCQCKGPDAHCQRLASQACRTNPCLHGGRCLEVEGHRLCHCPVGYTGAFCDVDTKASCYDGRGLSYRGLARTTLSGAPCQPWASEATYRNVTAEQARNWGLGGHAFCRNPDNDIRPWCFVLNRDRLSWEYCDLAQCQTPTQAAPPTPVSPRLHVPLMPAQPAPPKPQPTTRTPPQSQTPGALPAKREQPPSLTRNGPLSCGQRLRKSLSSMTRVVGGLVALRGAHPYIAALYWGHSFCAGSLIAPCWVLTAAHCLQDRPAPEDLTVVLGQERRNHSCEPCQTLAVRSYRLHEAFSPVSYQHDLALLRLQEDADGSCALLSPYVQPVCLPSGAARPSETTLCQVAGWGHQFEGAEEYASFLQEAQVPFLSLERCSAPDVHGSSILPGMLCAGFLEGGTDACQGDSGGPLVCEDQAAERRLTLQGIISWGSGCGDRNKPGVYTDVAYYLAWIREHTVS

Genome polyprotein = Genome polyprotein (dengue virus type 2, UniProt P29990); assay: Dengue-2 NS5 methyltransferase inhibitors, primary screen, biochemical, confirmation dose response (AID 588689); type: functional
Sequence of Genome polyprotein (P29990 2492-3391 limits assumed): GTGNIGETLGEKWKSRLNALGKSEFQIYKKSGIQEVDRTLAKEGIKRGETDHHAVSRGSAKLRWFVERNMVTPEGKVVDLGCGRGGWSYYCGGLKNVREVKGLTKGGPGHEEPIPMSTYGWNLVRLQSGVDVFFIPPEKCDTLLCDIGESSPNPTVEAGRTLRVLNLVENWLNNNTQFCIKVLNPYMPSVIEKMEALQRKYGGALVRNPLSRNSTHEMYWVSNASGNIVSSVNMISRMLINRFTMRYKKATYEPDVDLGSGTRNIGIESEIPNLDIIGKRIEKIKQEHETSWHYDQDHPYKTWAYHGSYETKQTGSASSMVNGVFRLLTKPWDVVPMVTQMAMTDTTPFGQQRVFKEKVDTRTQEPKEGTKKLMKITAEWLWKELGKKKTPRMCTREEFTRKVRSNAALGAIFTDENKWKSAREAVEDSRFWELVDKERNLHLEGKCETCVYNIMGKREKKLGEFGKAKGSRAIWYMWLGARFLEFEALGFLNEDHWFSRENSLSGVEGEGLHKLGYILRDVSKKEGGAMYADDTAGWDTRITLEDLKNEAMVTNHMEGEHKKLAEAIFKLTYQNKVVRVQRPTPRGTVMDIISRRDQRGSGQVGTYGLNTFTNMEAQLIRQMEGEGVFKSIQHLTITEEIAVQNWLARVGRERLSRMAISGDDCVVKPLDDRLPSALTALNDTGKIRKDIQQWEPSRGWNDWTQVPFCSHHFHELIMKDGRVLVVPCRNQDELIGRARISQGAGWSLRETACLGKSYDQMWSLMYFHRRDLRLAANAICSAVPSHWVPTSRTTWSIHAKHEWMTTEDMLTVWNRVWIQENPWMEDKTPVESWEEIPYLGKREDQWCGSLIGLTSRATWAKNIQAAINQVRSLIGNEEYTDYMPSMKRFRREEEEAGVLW

INS1 = assay: beta cell apoptosis inhibitors, cytokine rescue, dose response, luminescence, retest (AID 449756); type: functional, cell-based; conditions: Rattus norvegicus;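 note: cell death triggered by IL-1 beta plus TNF-alpha plus IFN-gamma mixture; protective hits raise ATP signal compared with cytokine alone wells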
Protein Wnt-3a = Protein Wnt-3a (Mus musculus, UniProt P27467); assay: Wnt3a-driven reporter signaling inhibition, dose response, selectivity assay for Gli-SUFU antagonist project, Wnt-LIGHT cells, luminescence (AID 651570); type: functional; conditions: read-out: IC50_Mean;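 note: Wnt-LIGHT reporter cells stimulated with conditioned medium from Wnt3a-producing cells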
Sequence of Protein Wnt-3a (P27467 whole entry): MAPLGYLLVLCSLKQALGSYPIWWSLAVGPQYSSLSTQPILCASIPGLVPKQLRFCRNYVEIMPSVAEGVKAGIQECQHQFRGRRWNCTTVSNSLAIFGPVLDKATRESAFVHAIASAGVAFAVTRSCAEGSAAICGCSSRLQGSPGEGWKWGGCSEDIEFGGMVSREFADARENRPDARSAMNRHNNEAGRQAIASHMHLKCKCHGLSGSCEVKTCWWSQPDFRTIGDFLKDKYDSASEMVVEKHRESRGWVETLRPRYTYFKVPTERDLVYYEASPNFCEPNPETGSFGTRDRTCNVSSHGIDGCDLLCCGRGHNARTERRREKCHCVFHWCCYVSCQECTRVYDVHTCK

[9] = Shn3 3'UTR reporter inhibitors, dose response, cell-based, Clone20 osteoblasts, firefly luciferase, cherry-picked (AID 624132); type: functional;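 note: firefly luciferase luminescence from reporter carrying the Shn3 3'UTR in osteoblasts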
[10] = cytotoxicity in HEK-293T cells, dose response, cytotoxicity control for TCR NF-kB inhibitor project, luminescence, T-cell screen hits (AID 489026); type: functional, cell-based;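 note: cells exposed to compound about 14 hours before the viability readout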
[11] = HepG2 cell cytotoxicity, dose response, cytotoxicity control for Shn3 inhibitor project, CellTiter-Glo, cherry-picked (AID 624134); type: functional, cell-based
[12] = control 3'UTR Renilla luciferase suppression, dose response, counter-screen for Shn3 inhibitor project, cell-based, Clone20-Shn3RL, cherry-picked (AID 624133); type: functional
[13] = molecular target: Glucose-6-phosphate 1-dehydrogenase (Homo sapiens, UniProt P11413); assay: human G6PD enzyme inhibitors, dose response, selectivity assay for P. falciparum G6PD inhibitor project, biochemical, fluorescence (AID 504792); type: functional
Sequence of Glucose-6-phosphate 1-dehydrogenase (P11413 whole entry): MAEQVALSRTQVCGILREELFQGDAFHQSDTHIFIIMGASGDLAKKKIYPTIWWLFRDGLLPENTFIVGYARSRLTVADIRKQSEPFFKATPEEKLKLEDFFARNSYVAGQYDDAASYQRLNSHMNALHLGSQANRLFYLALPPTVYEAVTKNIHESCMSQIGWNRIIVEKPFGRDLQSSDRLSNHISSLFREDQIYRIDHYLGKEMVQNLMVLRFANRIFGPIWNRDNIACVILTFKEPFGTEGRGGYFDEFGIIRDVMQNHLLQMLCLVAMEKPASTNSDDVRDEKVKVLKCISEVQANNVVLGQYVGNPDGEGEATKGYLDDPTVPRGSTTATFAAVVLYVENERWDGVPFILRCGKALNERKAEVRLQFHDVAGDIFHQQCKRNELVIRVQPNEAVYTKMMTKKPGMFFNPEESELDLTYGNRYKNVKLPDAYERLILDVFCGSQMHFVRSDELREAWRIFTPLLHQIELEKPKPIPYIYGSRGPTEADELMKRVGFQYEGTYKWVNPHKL

**Q.** What does the source list for Oc1nc(Nc2ccccc2)nc(N2CCCC2)n1?
**A.** IC50 (cells [1]): > 29.9 µM (inactive); EC50 (cells [2]): > 29.9 µM (inactive)

**Q.** Which IC50 (Protein skinhead-1) does the source give for O=[N+]([O-])c1ccc(/C=C/C2=NN(c3ccccc3)C(c3ccco3)C2)o1 (centres undefined) here?
**A.** Its IC50 is > 100 µM (inactive).

**Q.** And the EC50 [3]?
**A.** The EC50 was 0.427 µM (active).

**Q.** And the IC50 (Beta-galactosidase)?
**A.** Its IC50 is 41 µM (inactive).

**Q.** What about the EC50 [4] of the same compound?
**A.** The EC50 was 18.5 µM (active).

**Q.** For COC(=O)c1ccc(/C=C(\C#N)C(=O)NC(C)c2ccccc2)cc1 (centres undefined), which EC50 [5] is on record?
**A.** The EC50 was 47.1 µM (active).

**Q.** And the AC50 [6]?
**A.** The AC50 was 10.7 µM (active).

**Q.** For CN(C)c1ccnc(N(Cc2ccccc2)Cc2ccccc2)c1C#N, which IC50 [7] is on record?
**A.** The IC50 was 0.509 µM (active).

**Q.** With CC[n+]1c(C=C2C=CN(C)C=C2)ccc2cc(C)ccc21 as the compound, how does the AC50 [6] read?
**A.** The AC50 was 1.74 µM (active).

**Q.** Which EC50 [5] does the source give for COc1ccc(C(C)=O)cc1CSc1nc2ccccc2c(=O)n1-c1cccc(C)c1 here?
**A.** Its EC50 is 28.9 µM (active).

**Q.** And the IC50 (Phospholipase A2)?
**A.** Its IC50 is 0.321 µM (active).

**Q.** What about the IC50 (Cysteine protease ATG4B) of the same compound?
**A.** Its IC50 is 0.502 µM (active).

**Q.** And the EC50 [8]?
**A.** The EC50 was 29.1 µM (active).

**Q.** Which results are given for O=C(O)c1ccc(/C=C2\SC(=S)N(Nc3ccccc3)C2=O)cc1?
**A.** IC50 (Coagulation factor XII): > 50 µM (inactive); IC50 (Genome polyprotein): 58 µM (active); AC50 (INS1): 3.85 µM (active)

**Q.** What does the source list for COc1cccc(CN(C)C(=O)c2cc(COc3ccc4ncccc4c3)on2)c1?
**A.** IC50 (Protein Wnt-3a): 1.02 µM (active); AC50 [9]: 1.49 µM (active); IC50 [10]: 59.9 µM (inactive); AC50 (INS1): 5.13 µM (active); AC50 [11]: 3.93 µM (active); AC50 [12]: 2.1 µM (active)

**Q.** Which IC50 [13] does the source give for Cc1ccccc1-n1c(-c2ccc3ccccc3n2)n[nH]c1=S here?
**A.** Its IC50 is > 80 µM (inactive).
